Test: photoluminescence quantum yield (fraction); solvent given as SMILES

COC(=O)C1=C(C(=O)OC)C2(c3ccccc3-c3ccccc32)[C@@H](c2ccc(C)cc2)C=C2c3cc(OC)c(OC)cc3CCN21
photoluminescence quantum yield (in ClCCl): 0.00491

F[B-]1(F)OC(c2ccccc2)=Cc2ccc3ccccc3[n+]21
photoluminescence quantum yield (in ClC(Cl)Cl): 0.53 | photoluminescence quantum yield (in ClCCl): 0.57

F[B-]1(F)n2c(c3cccc4cccc2c43)=Nc2cccc[n+]21
photoluminescence quantum yield (in C1CCOC1): 0.99 | photoluminescence quantum yield (in CC#N): 0.99 | photoluminescence quantum yield (in CCCCCC): 0.99 | photoluminescence quantum yield (in Cc1ccccc1): 0.99 | photoluminescence quantum yield (in ClCCl): 0.99

COc1ccc2c(c1)cc(C)c1c3ccccc3[nH]c21
photoluminescence quantum yield (in ClCCl): 0.109

CC1(C)C(/C=C/C2=C(c3ccc(C(=O)O)cc3)C(=C/C=C3/N(CCCCS(=O)(=O)[O-])c4ccc5ccccc5c4C3(C)C)/CCC2)=[N+](CCCCS(=O)(=O)[O-])c2ccc3ccccc3c21
photoluminescence quantum yield (in CO): 0.092

C[Si]1(C)O[Si](C)(C)c2cc3c(-c4ccccc4)c4cc([N+](=O)[O-])ccc4nc3cc21
photoluminescence quantum yield (in ClCCl): 0.3

Cc1cc(C)c(B(c2c(C)cc(C)cc2C)c2cc3cc(N(C)C)c4ccccc4c3c3c2ccc2ccccc23)c(C)c1
photoluminescence quantum yield (in C1CCCCC1): 0.36 | photoluminescence quantum yield (in C1CCOC1): 0.21 | photoluminescence quantum yield (in CC#N): 0.13 | photoluminescence quantum yield (in ClC(Cl)Cl): 0.2 | photoluminescence quantum yield (in c1ccccc1): 0.3

CC(=O)c1ccc(NC(=O)c2ccc(N(C)C)cc2)cc1
photoluminescence quantum yield (in C1CCCCC1): 0.0006 | photoluminescence quantum yield (in C1CCOC1): 0.0158 | photoluminescence quantum yield (in CC#N): 0.0017 | photoluminescence quantum yield (in CCOCC): 0.001

COc1ccc(-c2csc(/C(C#N)=N\Nc3ccc(C#N)cc3)n2)cc1
photoluminescence quantum yield (in CC#N): 0.001 | photoluminescence quantum yield (in CCO): 0.002 | photoluminescence quantum yield (in CN(C)C=O): 0 | photoluminescence quantum yield (in Cc1ccccc1): 0.002 | photoluminescence quantum yield (in ClCCl): 0.002

CCCCN(CCCC)c1ccc(/C=C/c2ccc3nc(-c4ccccc4)c(/C=C/c4ccc(N(C)C)cc4)nc3c2)cc1
photoluminescence quantum yield (in C1COCCO1): 0.17

CC1(C)C(=O)C=Cc2ccc(N)cc21
photoluminescence quantum yield (in O): 0.14

COCCOCCOCCNc1cc2c3c(c(NCCOCCOCCOC)cc4c3c1C(=O)N(CCOCCOCCOC)C4=O)C(=O)N(CCOCCOCCOC)C2=O
photoluminescence quantum yield (in CO): 0.33 | photoluminescence quantum yield (in ClC(Cl)Cl): 0.56 | photoluminescence quantum yield (in O): 0.039

CCCCN1C(=O)C(=C/C=C/C=C/C=C2N(CCCC)c3ccccc3N2CCCC)C(=O)N(CCCC)C1=S
photoluminescence quantum yield (in CC#N): 0.099 | photoluminescence quantum yield (in CCCCCC): 0.178 | photoluminescence quantum yield (in CCO): 0.074 | photoluminescence quantum yield (in CN(C)C=O): 0.127 | photoluminescence quantum yield (in CO): 0.056 | photoluminescence quantum yield (in Cc1ccccc1): 0.73 | photoluminescence quantum yield (in ClC(Cl)Cl): 0.365 | photoluminescence quantum yield (in ClCCl): 0.266 | photoluminescence quantum yield (in OCC(F)(F)F): 0.023

COC(=O)C12N=N[C@](C(=O)OC)(C3C4CCC(C4)C31)C1[C@@H]3CC[C@@H](C3)[C@H]12 (stereo partly drawn)
photoluminescence quantum yield (in CC#N): 0.09

COCCOc1ccc(OCCOC)c(C=O)c1
photoluminescence quantum yield (in CC(C)(C)O): 0.13 | photoluminescence quantum yield (in CC(C)CO): 0.21 | photoluminescence quantum yield (in CC(C)O): 0.21 | photoluminescence quantum yield (in CCCCO): 0.23 | photoluminescence quantum yield (in CCCO): 0.25 | photoluminescence quantum yield (in CCO): 0.2 | photoluminescence quantum yield (in CN(C)C=O): 0.03 | photoluminescence quantum yield (in CNC=O): 0.14 | photoluminescence quantum yield (in CO): 0.24 | photoluminescence quantum yield (in NC=O): 0.44 | photoluminescence quantum yield (in O): 0.11

COCCC1=Cc2nc1ccc1[nH]c(cc1CCOC)c1nc(c(O)cc3[nH]c2cc3CCOC)C(CCOC)=C1
photoluminescence quantum yield (in Cc1ccccc1): 0.18

c1ccc(N(c2ccccc2)c2ccc(-c3ncnc4ccccc34)cc2)cc1
photoluminescence quantum yield (in ClCCl): 0.93

CCCCCCOc1cc(N(CC)CC)ccc1/C=C(\C#N)c1ccc(/C=C/C(=C(C#N)C#N)c2ccc(N(c3ccccc3)c3ccccc3)cc2)s1
photoluminescence quantum yield (in ClCCl): 0.027

CCCCCCN(CCCCCC)c1ccc(C#Cc2ccc(-c3ccc(C#Cc4ccc(N(CCCCCC)CCCCCC)cc4)cc3)cc2)cc1
photoluminescence quantum yield (in Cc1ccccc1): 0.87

Cc1ccc(-c2nc3c([nH]2)C2=CC(=O)S[C@]2(C)[C@@]2(C)SC(=O)C=C32)cc1
photoluminescence quantum yield (in CC#N): 0.14

CCCCCCC(CCCCCC)N1C(=O)c2cccc3c(-c4ccc(OC)cc4)ccc(c23)C1=O
photoluminescence quantum yield (in CCCCCC): 0.65 | photoluminescence quantum yield (in CCCCCCCCCCCCCC): 0.79 | photoluminescence quantum yield (in CCCCCCCCCCCO): 0.83 | photoluminescence quantum yield (in CCCCO): 0.83 | photoluminescence quantum yield (in CN(C)C=O): 0.82 | photoluminescence quantum yield (in Cc1ccccc1): 0.75 | photoluminescence quantum yield (in ClC(Cl)Cl): 0.83

From the Deep4Chem optical property database
